Reference: patent publication US12569495B2, “Inhibitors of porcine reproductive and respiratory syndrome virus” (UNIVERSITY OF CONNECTICUT, priority 2020, dated 2026)
“Also recorded” adds a separate entry of the source.

Experiments:
[1] = target: T1, protein-protein interactions (PPI) between CD163-SRCR5 domain and PRRSV GP2a protein (Sus scrofa, UniProt Q2VL90); experiment: BiFC assay between SRCR5-VN and GP2a-VC proteins; format: cell-based, porcine CD163; PRRSV; conditions: HEK293T cells; compounds at 5 μM; 24 h; DMSO as Ctrl
T1 construct: The amplified cDNA fragments of SRCR2 or SRCR5 were subcloned into the pBiFC-VN155(I152L) vector; Myc tag (from vector backbone pMyc-CMV); expressed in transfected cells; host or cells: HEK293T
T1 sequence (Q2VL90 477-577): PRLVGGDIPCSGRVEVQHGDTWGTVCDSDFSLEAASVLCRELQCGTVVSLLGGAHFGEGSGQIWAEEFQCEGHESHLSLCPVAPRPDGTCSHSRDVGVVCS
From the text: (§1) The N-terminus and C-terminus of the truncated Venus-I152L were inserted into vector backbone pMyc-CMV and pCMV-HA, constituting commercial plasmids pBiFC-VN155(I152L) and pBiFC-VC155, respectively (Addgene, Watertown, MA, USA). See Kodama and Hu, Biotechniques 49:793-805 (2010). cDNA fragments for the scavenger receptor cysteine-rich domain 2 (SRCR2) and SRCR5 of porcine CD163 receptor, and for PRRSV glycoproteins GP2a and GP4 were amplified by RT-PCR. The amplified cDNA fragments of SRCR2 or SRCR5 were subcloned into the pBiFC-VN155(I152L) vector digested with EcoRI/BglII. For constructions of GP2a and GP4 fusion proteins, cDNA fragments encoding GP2a or GP4 were subcloned into the pBiFC-VC155 vector digested with EcoRI/BglII. All plasmid clones were verified by DNA Sanger sequencing.
(§2) HEK293T cells cultured in 12-well plates were transfected with appropriate plasmids for each BiFC assay using FuGENE® 6 (Promega, Madison, WI, USA). After 5 h, various concentrations of chemical compounds were added to the culture media. DMSO was used as the vehicle control. Fluorescence images of treated cells at 24 h after plasmid transfection were captured using an inverted Nikon fluorescence microscope. Fluorescence intensity of treated cells was measured by ImageJ.
Using the previously described BiFC vector based on the fragmented venus protein (VN-155[I152L], hereafter named VN) and (VC-155, hereafter named VC), fusion protein constructs were established between the porcine CD163 protein SRCR5 or SRCR2 domain and VN, and between the PRRSV minor glycoproteins (GP2a or GP4) and VC (FIG. 1A, 2). See Kodama et al., Biotechniques 49(5): 793-805 (2010). These plasmids were co-expressed in HEK293T cells to evaluate the PPIs between the SRCR5 domain and GP2a or GP4.
The BiFC assays was tested to determine whether it could identify small molecules with potential to block the protein-protein interactions between CD163 and PRRSV. A customized virtual screen of a library of commercially available small molecules was performed with the AtomNet® model at a region centered around R561 (FIG. 3) based on the available 3-D protein structure of porcine CD163-SRCR5 domain, and 74 compounds predicted to target this potential binding site were procured. Ma et al., J. Virol. 91(3): e01897-16 (2017). These compounds were tested using the BiFC assay, to evaluate their ability to inhibit the PPI between GP2a and SRCR5. Plasmids were co-transfected in HEK293T cells, 4 h later, compounds were individually administered to cells at 5 μM. Twenty-four hours later, images were taken under a fluorescence microscope and the fluorescence quantified. […] Until these studies, there has been no known biological activity reported for compound B7.

[2] = target: T2, PPI between PRRSV GP4 glycoprotein and CD163-SRCR5 domain (Sus scrofa, UniProt Q2VL90); experiment: BiFC assay between SRCR5-VN and GP4-VC proteins; format: cell-based, porcine CD163; PRRSV; conditions: HEK293T cells; DMSO as Ctrl
T2 construct: The amplified cDNA fragments of SRCR2 or SRCR5 were subcloned into the pBiFC-VN155(I152L) vector; Myc tag (from vector backbone pMyc-CMV); expressed in transfected cells; host or cells: HEK293T
T2 sequence (Q2VL90 477-577): as above
From the text: as §1, with “All plasmid clones were verified by DNA Sanger sequencing.” left out
as §2, with “After 5 h, various concentrations of chemical compounds were added to the culture media. DMSO was used as the vehicle control.” left out, “ImageJ. […]” for “ImageJ.”
The BiFC assays was tested to determine whether it could identify small molecules with potential to block the protein-protein interactions between CD163 and PRRSV. […] Twenty-four hours later, images were taken under a fluorescence microscope and the fluorescence quantified. […]

[3] = tested on: PRRSV strain VR-2332; experiment: qRT-PCR for PRRSV RNA in infected PAMs; format: cell-based
Method: Total RNA was extracted from PAMs infected with PRRSV using RNeasy Mini Kit (Qiagen, Germantown, MD) according to the manufacturer's instruction. RNA concentrations were measured using a Nanodrop spectrophotometer (Thermo Fisher Scientific). GAPDH was used as a housekeeping gene for gene expression normalization. Data were processed with the software associated with ABI 7500.
(§3) For PRRSV infection of PAM cells, PAMs were seeded one day prior to infection. […] Cells were inoculated with VR-2332, SDSU73, NADC30 or Lelystad PRRSV at MOI=0.1 for 1 h. The 24 h cell medium supernatant was stored at −80° C. until use.

[4] = tested on: PRRSV strain VR-2332; experiment: PRRSV titration assay of culture media of infected PAMs; format: cell-based; conditions: for log reduction of viral titer: pre- and post-inoculation treatment
Method: as §3
(§4) For PRRSV titration assay, MARC145 cells were seeded in 48-well plates and grew to ˜80% density before inoculation. Viral supernatants were prepared by 10-fold serial dilution, and 100 μl of the dilutions was added per well in six replicates. Inocula were removed from cells after 2 h and replaced with 0.5 mL of DMEM supplemented with 2% FBS, 2 mM glutamine, 0.1 mM MEM non-essential amino acids, 50 U/mL penicillin, and 50 μg/mL streptomycin (Invitrogen). Cells were cultured at 37° C. for 6 days and any cytopathic effects were observed and recorded. The PRRSV titer was calculated using the Reed and Muench method and expressed as median tissue culture infectious dose (TCID50/mL). Reed and Muench, Am. J. Epidemiol. 27(3): 493-497 (1938).

[5] = tested on: type I strain (Lelystad); experiment: PRRSV titration assay, type I strain; format: cell-based; conditions: 15 μM; PAMs; 24 h
Method: For PRRSV infection of PAM cells, PAMs were seeded one day prior to infection. Control cells were treated with DMSO and test cells were treated with the selected screening compounds (5-20 μM) for 4 h before inoculation, during the 1 h PRRSV inoculation, and for 24 h after inoculation. Cells were inoculated with VR-2332, SDSU73, NADC30 or Lelystad PRRSV at MOI=0.1 for 1 h. The 24 h cell medium supernatant was stored at −80° C. until use.
as §4
The inhibitory effect of B7 was further tested on multiple strains of PRRSV. […]

Cc1cc(F)ccc1S(=O)(=O)Nc1nc2ccccc2nc1Nc1cccc(S(=O)(=O)N2CCOCC2)c1 [Compound B7, 4-fluoro-2-methyl-N-[3-(3-morpholin-4-ylsulfonylanilino)quinoxalin-2-yl]benzenesulfonamide]
inhibition of PPI between GP2a and SRCR5 (venus fluorescence in BiFC assay) [1]: significantly inhibited the reconstitution of venus fluorescence; also recorded: positive inhibitory effect; also recorded: significantly inhibits the interaction | inhibition of PPI between PRRSV GP4 glycoprotein and CD163-SRCR5 domain (BiFC) [2]: also inhibited the PPI; also recorded: significantly inhibits the interaction | inhibition of PRRSV infection of PAMs (qRT-PCR, viral RNA) ([3]; 0, 5, 10, 15, 20 μM, 4 h pre-treatment, 1 h inoculation MOI=0.1, 24 h after inoculation): dose-dependent inhibition; also recorded: inhibits PRRSV infection of porcine alveolar macrophages (PAMs) | inhibitory effect on PRRSV infection (qRT-PCR), pre-treatment alone ([3]; 15 μM, 4 h pre-treatment only, no post-treatment, VR-2332): minimal impact | log reduction of viral titer ([4]; 10 μM, 24 h): 1.7 log | log reduction of PRRSV titer, post-inoculation treatment alone ([4]; 15 μM, 24 h): 2.8 log | log reduction of viral titer ([4]; 15 μM, 24 h): 2.9 log | inhibition of PRRSV infection of PAMs (titration of culture media) ([4]; 10-20 μM B7, 24 h): inhibited PRRSV infection of PAMs effectively | log reduction of viral titer for the type I strain (Lelystad) [5]: 2.2 log
